pKi: −log10 of the molar value. Counter-ions that a name gives are not always drawn. Like-named read-outs stand apart in the source and are kept apart here.
What was measured:
rat TAAR1 = rat TAAR1 (Rattus norvegicus (Rat), UniProt Q923Y9); experiment: Radioligand binding assay on rat TAAR1; conditions: for Ki: read-out: Ki (μM) rat
How it was run: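 Membranes from HEK293 cells stably expressing rat TAAR1, with Kd checked per batch by saturation. Competition with ³H-(S)-4-[(ethyl-phenyl-amino)-methyl]-4,5-dihydro-oxazol-2-ylamine, compounds 10 pM–10 μM in duplicate, 1 hr at 4 °C. Filtration then scintillation counting; nonspecific binding defined with 10 μM unlabeled ligand.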

mouse TAAR1 = mouse TAAR1 (Mus musculus (Mouse), UniProt Q923Y8); experiment: Radioligand binding assay on mouse TAAR1; conditions: for Ki: read-out: Ki (μM) mouse
mouse TAAR1, sequence (Q923Y8 whole entry): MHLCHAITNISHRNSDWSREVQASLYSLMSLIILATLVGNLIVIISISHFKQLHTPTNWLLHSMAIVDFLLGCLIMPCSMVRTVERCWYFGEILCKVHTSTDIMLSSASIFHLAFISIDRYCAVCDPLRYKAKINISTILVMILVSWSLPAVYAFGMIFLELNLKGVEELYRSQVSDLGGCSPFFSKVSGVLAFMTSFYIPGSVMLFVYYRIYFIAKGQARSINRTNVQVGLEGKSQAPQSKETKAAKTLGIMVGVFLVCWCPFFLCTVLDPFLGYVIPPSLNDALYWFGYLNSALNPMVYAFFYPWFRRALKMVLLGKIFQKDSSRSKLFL
How it was run: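 Membranes were from HEK293 cells stably expressing mouse TAAR1. Compounds from 10 pM to 10 μM, in duplicate, competed with [3H]-(S)-4-[(ethyl-phenyl-amino)-methyl]-4,5-dihydro-oxazol-2-ylamine for 1 h at 4 °C. Nonspecific binding was defined with 10 μM unlabelled ligand, and bound radioactivity was read by filtration and scintillation.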

[1] = rat TAAR1, HEK-293 membranes, second value of cell mouse/rat
[2] = mouse TAAR1, HEK-293 membranes, first value of cell mouse/rat

rat TAAR1, sequence (Q923Y9 whole entry): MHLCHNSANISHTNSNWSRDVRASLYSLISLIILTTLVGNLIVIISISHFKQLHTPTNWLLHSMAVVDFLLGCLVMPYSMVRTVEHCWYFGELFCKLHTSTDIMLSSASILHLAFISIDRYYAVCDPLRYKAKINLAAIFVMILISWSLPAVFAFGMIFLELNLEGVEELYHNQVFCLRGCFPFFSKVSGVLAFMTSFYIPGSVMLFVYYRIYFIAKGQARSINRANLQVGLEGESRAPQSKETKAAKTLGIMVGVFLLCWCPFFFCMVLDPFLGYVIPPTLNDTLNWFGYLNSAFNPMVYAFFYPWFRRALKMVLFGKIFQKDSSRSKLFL

| Ki (rat TAAR1; [1]) | Ki (mouse TAAR1; [2]) | SMILES | other results |
| --- | --- | --- | --- |
| 0.0036 µM | 0.0011 µM | O=C(Nc1ccc(C2CCNC2)cc1)c1ccc(C(F)(F)F)cc1 (racemic) [Example 18, (RS)—N-(4-Pyrrolidin-3-yl-phenyl)-4-trifluoromethyl-benzamide hydrochloride] |  |
| 0.0022 µM | 0.0014 µM | O=C(Nc1ccc(C2CCNC2)cc1)OCCc1cccc(C(F)(F)F)c1 (racemic) [Example 123, (RS)-(4-Pyrrolidin-3-yl-phenyl)-carbamic acid 2-(3-trifluoromethyl-phenyl)-ethyl ester] |  |
| 0.0242 µM | 0.0041 µM | O=C(Nc1ccc(C2CCNC2)cc1)c1ccc(Cl)nc1 (racemic) [Example 43, (RS)-6-Chloro-pyridine-3-carboxylic acid (4-pyrrolidin-3-yl-phenyl)-amide hydrochloride] |  |
| 0.0018 µM | 0.0008 µM | O=C(Nc1ccc(C2CCNC2)cc1)c1ccc(Cl)c(Cl)c1 (racemic) [Example 56, (RS)-3,4-Dichloro-N-(4-pyrrolidin-3-yl-phenyl)-benzamide hydrochloride] |  |
| 0.0837 µM | 0.0189 µM | CN1CCN(c2ccc(NC(=O)Nc3ccc(-c4cnco4)cc3)cc2)CC1 [Example 4, 1-[4-(4-Methyl-piperazin-1-yl)-phenyl]-3-(4-oxazol-5-yl-phenyl)-urea] |  |
| 0.0059 µM | 0.035 µM | O=C(Nc1ccc(C2CCCNC2)cc1)c1ccc(C(F)(F)F)cn1 (racemic) [Example 138, (RS)-5-Trifluoromethyl-pyridine-2-carboxylic acid (4-piperidin-3-yl-phenyl)-amide hydrochloride] |  |
| 0.0608 µM | 0.199 µM | CC1(COc2ccc(C(=O)Nc3ccc(C4CNCCO4)cc3)cc2)COC1 (racemic) [Example 228, (RS)-4-((3-Methyloxetan-3-yl)methoxy)-N-(4-(morpholin-2-yl)phenyl)benzamide] |  |
| 0.0009 µM | 0.0107 µM | O=C(Nc1ccc(CCC2CCCN2)cc1)c1ccc(C(F)(F)F)cc1 (racemic) [Example 155, (RS)—N-[4-(2-Pyrrolidin-2-yl-ethyl)-phenyl]-4-trifluoromethyl-benzamide hydrochloride] |  |
| 0.106 µM | 2.06 µM | O=C(Nc1ccc(CCC2CCCNC2)cc1)c1ncccc1F (racemic) [Example 134, (RS)-3-Fluoro-pyridine-2-carboxylic acid [4-(2-piperidin-3-yl-ethyl)-phenyl]-amide hydrochloride] |  |
| 0.0022 µM | 0.0019 µM | O=C(Nc1ccc(C2CCNC2)cc1)OCCc1ccc(Cl)c(Cl)c1 (racemic) [Example 126, (RS)-(4-Pyrrolidin-3-yl-phenyl)-carbamic acid 2-(3,4-dichloro-phenyl)-ethyl ester] |  |
| 0.0174 µM | 2.51 µM | CCc1cnc(C(=O)Nc2ccc([C@@H]3CCCNC3)cc2)cn1 [Example 274, (S)-5-Ethyl-N-(4-(piperidin-3-yl)phenyl)pyrazine-2-carboxamide hydrochloride] |  |
| 0.0121 µM | 0.273 µM | O=C(NCc1ccc([C@@H]2CNCCO2)cc1)c1ccc(OCC(F)(F)F)nc1 [Example 316, (R)—N-(4-(Morpholin-2-yl)benzyl)-6-(2,2,2-trifluoroethoxy)nicotinamide hydrochloride] |  |
| 0.0411 µM | 0.126 µM | N#Cc1ccc(C(=O)Nc2ccc(C3CCNC3)cc2)nc1 (racemic) [Example 165, (RS)-5-Cyano-N-(4-(pyrrolidin-3-yl)phenyl)picolinamide hydrochloride] |  |
| 1.48 µM | 0.0255 µM | O=C(Nc1ccc(C2CCNC2)cc1)c1ncc(F)cc1F (racemic) [Example 75, (RS)-3,5-Difluoro-pyridine-2-carboxylic acid (4-pyrrolidin-3-yl-phenyl)-amide hydrochloride] |  |
| 0.005 µM | 0.0982 µM | N#Cc1ccc(C(=O)Nc2ccc(C3CNCCO3)cc2)cn1 (racemic) [Example 194, (RS)-2-(4-(6-cyanonicotinamido)phenyl)morpholin-4-ium chloride] |  |
| 0.0081 µM | 0.0046 µM | O=C(Nc1ccc(C2CCNC2)cc1)c1cc2ccccc2c(Cl)n1 (racemic) [Example 108, (RS)-1-Chloro-isoquinoline-3-carboxylic acid (4-pyrrolidin-3-yl-phenyl)-amide hydrochloride] |  |
| 0.0121 µM | 0.0573 µM | O=C(Nc1ccc(C2CCNC2)cc1)c1cnc(Cl)cn1 (racemic) [Example 163, (RS)-5-Chloro-N-(4-(pyrrolidin-3-yl)phenyl)pyrazine-2-carboxamide hydrochloride] |  |
|  |  | CN(C(=O)Oc1ccccc1)c1ccc(C2CCNC2)cc1 (racemic) [Example 22, (RS)-Methyl-(4-pyrrolidin-3-yl-phenyl)-carbamic acid phenyl ester] | pKi (rat TAAR1): 5.63; pKi (mouse TAAR1): 6.28 |
| 0.0018 µM | 0.287 µM | O=C(Nc1ccc([C@H]2CNCCCO2)cc1)c1cccc(Cl)c1 [Example 308, (S)—N-(4-(1,4-Oxazepan-2-yl)phenyl)-3-chlorobenzamide hydrochloride] |  |
| 0.102 µM | 0.0052 µM | COc1ccc(C(=O)Nc2ccc(C3CCNC3)cc2)c(F)c1 (racemic) [Example 88, (RS)-2-Fluoro-4-methoxy-N-(4-pyrrolidin-3-yl-phenyl)-benzamide hydrochloride] |  |
|  |  | O=C(Nc1ccc([C@@H]2CNCCO2)cc1)c1ccc(OCC(F)(F)F)nc1 [Example 268, (R)—N-(4-(Morpholin-2-yl)phenyl)-6-(2,2,2-trifluoroethoxy)nicotinamide hydrochloride] | Ki (rat TAAR1): 0.0024 µM; Ki (mouse TAAR1): 0.002 µM |
| 0.0056 µM | 0.0574 µM | O=C(Nc1ccc(C2CNCCO2)cc1)Nc1ccc(Cl)nc1 (racemic) [Example 302, (RS)-1-(6-Chloropyridin-3-yl)-3-(4-(morpholin-2-yl)phenyl)urea hydrochloride] |  |
|  |  | O=C(Nc1ccc(C(=O)C2CCNC2)cc1)c1ccc(Cl)cc1 (racemic) [Example 136, (RS)-4-Chloro-N-[4-(pyrrolidine-3-carbonyl)-phenyl]-benzamide hydrochloride] | pKi (rat TAAR1): 9.10; pKi (mouse TAAR1): 6.82 |
| 0.004 µM | 0.0095 µM | O=C(Nc1ccc([C@H]2CCCNC2)cc1)c1ccc(Cl)cc1 [Example 113, 4-Chloro-N—((R)-4-piperidin-3-yl-phenyl)-benzamide] |  |

| SMILES | Ki (rat TAAR1; [1]) | Ki (mouse TAAR1; [2]) | other results |
| --- | --- | --- | --- |
| O=C(Nc1ccc(C2CCNC2)cc1)Nc1ccc(Cl)c(Cl)c1 (racemic) [Example 3, (RS)-1-(3,4-Dichloro-phenyl)-3-(4-pyrrolidin-3-yl-phenyl)-urea hydrochloride] | 0.0016 µM | 0.0013 µM |  |
| O=C(Nc1ccc(C2CNCCO2)cc1)Nc1ccc(C(F)(F)F)cc1 (racemic) [Example 291, (RS)-1-(4-(Morpholin-2-yl)phenyl)-3-(4-(trifluoromethyl)phenyl)urea hydrochloride] |  | 0.0012 µM | Ki (rat TAAR1): 0.0017 µM |
| O=C(Nc1ccc(C2CCCNC2)cc1)c1ccc(OCC(F)(F)F)nc1 (racemic) [Example 178, (RS)—N-(4-(Piperidin-3-yl)phenyl)-6-(2,2,2-trifluoroethoxy)nicotinamide hydrochloride] | 0.002 µM | 0.0032 µM |  |
| O=C(Nc1ccc(CCC2CCCCN2)cc1)c1ccc(Cl)cn1 (racemic) [Example 171, (RS)-5-Chloro-N-(4-(2-(piperidin-2-yl)ethyl)phenyl)picolinamide hydrochloride] | 0.0101 µM | 0.198 µM |  |
| CO[C@H]1CC[C@H](C(=O)Nc2ccc(C3CNCCO3)cc2)CC1 (mixture of isomers) [Example 255, trans-(RS)-4-Methoxy-N-(4-(morpholin-2-yl)phenyl)cyclohexanecarboxamide hydrochloride] | 0.428 µM | 5.1 µM |  |
| O=C(Nc1ccc(CCC2CCCNC2)cc1)c1ccc(Cl)cn1 (racemic) [Example 118, (RS)-5-Chloro-pyridine-2-carboxylic acid [4-(2-piperidin-3-yl-ethyl)-phenyl]-amide hydrochloride] | 0.0081 µM | 0.13 µM |  |
| O=C(Nc1ccc(C2CNCCO2)cc1)c1cccc(Cl)c1 (racemic) [Example 209, (RS)-3-chloro-N-(4-(morpholin-2-yl)phenyl)benzamide hydrochloride] | 0.0016 µM | 0.0078 µM |  |
| O=C(Nc1ccc(C2CCCNC2)cc1)c1ccc(Cl)cc1F (racemic) [Example 100, (RS)-4-Chloro-2-fluoro-N-(4-piperidin-3-yl-phenyl)-benzamide hydrochloride] | 0.0308 µM | 0.0036 µM |  |
| Cc1cccc(C(=O)Nc2ccc(C3CNCCO3)cc2)c1 (racemic) [Example 277, (RS)-3-Methyl-N-(4-(morpholin-2-yl)phenyl)benzamide hydrochloride] | 0.0036 µM |  | Ki (mouse TAAR1): 0.0472 µM |
| O=C(Nc1ccc([C@H]2CCCNC2)cc1)c1cccc(Cl)c1 [Example 151, (R)-3-Chloro-N-(4-(piperidin-3-yl)phenyl)benzamide hydrochloride] | 0.0008 µM |  | Ki (mouse TAAR1): 0.011 µM |
| O=C(Nc1ccc([C@@H]2CCCNC2)cc1)OC1Cc2ccccc2C1 [Example 258, (S)-2,3-Dihydro-1H-inden-2-yl 4-(piperidin-3-yl)phenylcarbamate 2,2,2-trifluoroacetate] | 0.0062 µM |  | Ki (mouse TAAR1): 0.0225 µM |
| O=C(Nc1ccc(C2CCNC2)cc1)Nc1ccc(Cl)nc1 (racemic) [Example 26, (RS)-1-(6-Chloro-pyridin-3-yl)-3-(4-pyrrolidin-3-yl-phenyl)-urea hydrochloride] | 0.0279 µM | 0.0112 µM |  |
